One data set in a line: Mouse pharmacokinetics. Format: in vivo. As to conditions: CD-1 mice, 5 mg/kg, P.O. The protocol:
Test compound was intravenously (IV) or orally (PO) administrated to CD-1 mice. Blood samples were collected at different time points as indicated below. The concentration of the compounds in the mouse plasma was determined by LC-MS/MS and related parameters were calculated. The details are as follows: the required amount of the test product was taken to prepare a solution of the required concentration for intravenous injection or oral administration. The age of the animals was about 6-8 weeks at the beginning of the dosing experiment. Blood sampling time points are 0.083 h, 0.25 h, 0.5 h, 1 h, 2 h, 4 h, 8 h and 24 h after compound administration. The Phoenix WinNonlin 7.0 software was used to calculate the pharmacokinetic parameters through the blood drug concentration data at different time points.

The next data set addresses JAK1 (Homo sapiens, UniProt P23458). The experiment in a line: In vitro JAK1 kinase activity assay (HTRF kinEASE TK). Format: biochemical. Set-up: purchased Thermo Fisher. As to conditions: 1.1 μM ATP, 60 minutes, room temperature; read-out: IC50 JAK1 (enzyme activity assay). In outline: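 HTRF TK assay: 0.5 ng/μl JAK1, 1 μM biotinylated TK peptide, 1.1 μM ATP with MgCl2, MnCl2, DTT, 60 min at room temperature; compounds 10 μM to 0.04 nM, 1% DMSO. Overnight detection with SA-XL665 and TK-antibody; 665/620 ratio to % inhibition, IC50 by 4-parameter fit.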
In general terms: Time-resolved FRET reads energy transfer from a long-lived donor to a nearby acceptor.

The next data set deals with JAK2 (Homo sapiens, UniProt O60674). The experiment in a line: Human whole blood JAK2 activity assay: GM-CSF-induced STAT5 phosphorylation (CD33+ cells). Format: cell-based. More on the design: endogenous in cells. As to conditions: GM-CSF (20 ng/mL), read-out: IC50_JAK2 (GM-CSF/pSTAT5). The protocol:
Compound inhibition of JAK1 and JAK2 activities was measured in human whole blood: inhibition of IL-6-induced STAT1 phosphorylation (CD4+ T cells) and GM-CSF-induced STAT5 phosphorylation (CD33+ cells) in human whole blood were respectively analysized. The experimental procedures are shown as follows:
1) Human whole blood was collected into heparinized tubes, and seeded in a 96-well plate at 100 µL/well, and incubated in a cell incubator for 15 minutes.
2) Different concentrations of compounds (25 μL/well) were added into desired wells and incubated at 37° C. under 5% CO2 for 30 minutes. The final concentration of DMSO was 0.2%.
3) Blood cells were stimulated with recombinant human IL-6 (100 ng/mL) or recombinant human GM-CSF (20 ng/mL) or PBS at 37° C. and 5% CO2 for 20 minutes.
4) The blood was treated with pre-warmed 1× Lysis/Fixing Buffer (BD Phosflow) at 37° C. for 10 minutes to lyse erythrocytes and fix leukocytes.
5) After the cells were permeabilized with pre-cooled buffer (Perm buffer III) on ice for 60 minutes, anti-pSTAT1 and anti-CD4 antibodies (IL-6 stimulated samples) or anti-pSTAT5 and anti-CD33 antibodies (GM-CSF stimulated samples) were used to stain the samples at 4° C. for 60 minutes.
7) The cells were washed twice and resuspended in buffer for FACS analysis (Thermo Attune NxT).

Chain of JAK2 (O60674 whole entry): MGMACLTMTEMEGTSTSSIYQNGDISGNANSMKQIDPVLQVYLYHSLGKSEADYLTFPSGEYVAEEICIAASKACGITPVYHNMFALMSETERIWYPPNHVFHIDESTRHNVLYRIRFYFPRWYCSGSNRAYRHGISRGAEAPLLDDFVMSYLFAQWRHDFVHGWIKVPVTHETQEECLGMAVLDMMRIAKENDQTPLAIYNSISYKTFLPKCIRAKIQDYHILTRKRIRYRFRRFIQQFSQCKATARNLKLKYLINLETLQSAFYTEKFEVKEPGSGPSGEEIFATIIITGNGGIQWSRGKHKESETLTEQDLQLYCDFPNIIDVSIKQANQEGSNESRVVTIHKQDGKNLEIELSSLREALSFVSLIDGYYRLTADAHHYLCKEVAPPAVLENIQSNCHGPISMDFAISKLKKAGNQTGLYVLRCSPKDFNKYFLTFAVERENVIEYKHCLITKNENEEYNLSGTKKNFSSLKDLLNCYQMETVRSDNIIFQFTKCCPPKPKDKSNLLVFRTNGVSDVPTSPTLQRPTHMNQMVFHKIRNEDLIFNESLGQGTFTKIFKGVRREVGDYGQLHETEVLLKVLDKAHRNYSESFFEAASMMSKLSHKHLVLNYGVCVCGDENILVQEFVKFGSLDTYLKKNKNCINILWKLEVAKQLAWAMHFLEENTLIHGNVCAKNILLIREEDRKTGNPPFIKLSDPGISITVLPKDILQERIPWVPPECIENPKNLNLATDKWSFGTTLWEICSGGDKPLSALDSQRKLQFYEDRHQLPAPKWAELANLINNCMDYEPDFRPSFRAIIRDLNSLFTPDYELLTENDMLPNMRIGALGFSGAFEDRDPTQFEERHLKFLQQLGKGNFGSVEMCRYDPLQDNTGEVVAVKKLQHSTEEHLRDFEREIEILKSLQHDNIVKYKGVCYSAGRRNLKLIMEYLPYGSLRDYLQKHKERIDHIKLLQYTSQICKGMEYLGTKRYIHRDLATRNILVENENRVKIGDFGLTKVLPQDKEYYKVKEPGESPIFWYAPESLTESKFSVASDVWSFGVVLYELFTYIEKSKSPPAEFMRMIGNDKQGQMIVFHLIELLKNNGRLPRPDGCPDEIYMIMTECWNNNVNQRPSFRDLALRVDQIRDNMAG
Chain of JAK1 (P23458 whole entry): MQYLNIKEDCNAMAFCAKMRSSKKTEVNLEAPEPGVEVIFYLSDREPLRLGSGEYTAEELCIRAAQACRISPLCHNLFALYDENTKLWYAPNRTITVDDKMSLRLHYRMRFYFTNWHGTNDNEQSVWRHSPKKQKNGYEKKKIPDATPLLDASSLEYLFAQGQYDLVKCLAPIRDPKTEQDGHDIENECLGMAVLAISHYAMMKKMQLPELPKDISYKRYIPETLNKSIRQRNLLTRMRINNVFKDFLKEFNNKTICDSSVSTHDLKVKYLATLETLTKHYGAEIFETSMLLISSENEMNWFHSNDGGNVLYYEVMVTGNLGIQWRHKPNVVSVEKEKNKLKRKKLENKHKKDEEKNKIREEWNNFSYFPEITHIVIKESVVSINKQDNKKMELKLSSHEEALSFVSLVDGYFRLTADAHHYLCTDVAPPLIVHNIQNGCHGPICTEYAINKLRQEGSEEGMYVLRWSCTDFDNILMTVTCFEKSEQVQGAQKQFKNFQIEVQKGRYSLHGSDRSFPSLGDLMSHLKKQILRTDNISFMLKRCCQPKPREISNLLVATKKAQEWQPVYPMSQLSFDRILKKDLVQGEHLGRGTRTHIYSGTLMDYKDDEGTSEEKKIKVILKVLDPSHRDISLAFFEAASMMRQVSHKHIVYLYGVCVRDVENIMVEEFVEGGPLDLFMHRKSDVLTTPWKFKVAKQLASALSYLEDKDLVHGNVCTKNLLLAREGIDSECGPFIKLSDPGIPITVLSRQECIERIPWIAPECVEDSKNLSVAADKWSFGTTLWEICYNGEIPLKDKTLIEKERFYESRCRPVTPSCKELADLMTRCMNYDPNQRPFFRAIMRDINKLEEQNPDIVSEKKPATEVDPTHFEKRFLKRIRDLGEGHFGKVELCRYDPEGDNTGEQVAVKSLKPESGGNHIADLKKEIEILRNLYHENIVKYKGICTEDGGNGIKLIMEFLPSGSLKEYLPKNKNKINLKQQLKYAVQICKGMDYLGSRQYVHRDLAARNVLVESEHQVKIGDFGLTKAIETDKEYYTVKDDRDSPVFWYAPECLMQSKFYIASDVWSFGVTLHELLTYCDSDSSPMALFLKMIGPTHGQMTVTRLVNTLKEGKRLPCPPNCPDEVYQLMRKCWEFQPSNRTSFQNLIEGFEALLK

As to `CC[C@H](C(=O)Nc1nccc2c(-c3nc(Nc4cn(C)nc4OC)ncc3C)c[nH]c12)N1CCN(C)CC1` [Example 4, (R)—N-(3-(2-((3-Methoxy-1-methyl-1H-pyrazol-4-yl)amino)-5-methylpyrimidin-4-yl)-1H-pyrrolo[2,3-c]pyridin-7-yl)-2-(4-methylpiperazin-1-yl)butanamide], the F in the data set “Mouse pharmacokinetics” is given as 106%. Besides, in “Mouse pharmacokinetics” (mouse, po, plasma), the Cmax (usually the peak of the concentration-time curve) is 1060 ng/mL and the half-life (in general, the time in which the quantity being followed falls by half) was 3.79 h. The AUC(0-t) in “Mouse pharmacokinetics” (mouse, po, plasma, read-out: AUC0-24 hr) was 10200 ng·h/mL. The IC50 on JAK1 is under 0.005 µM. The IC50 at JAK2 was over 20 µM.

Source of the values: patent publication US12234232B2, “Aromatic heterocyclic compound with kinase inhibitory activity” (SHANGHAI ENNOVABIO PHARMACEUTICALS CO., LTD., priority 2018, dated 2025).
